Measurements taken from patent publication US20160061841A1, “NRF2-BASED CANCER TREATMENT AND DETECTION METHODS AND USES” (CanBas Co., Ltd., priority 2014, published 2016).
Entries after “also recorded” stand apart in the source; their conditions may differ. Where no end group is shown, it is not given here. [ ]: non-standard residue; d: D form. dPhe(F5) = N[C@H](Cc1c(F)c(F)c(F)c(F)c1F)C(=O)O; dBpa = N[C@H](Cc1ccc(C(=O)c2ccccc2)cc1)C(=O)O; dCha = N[C@H](CC1CCCCC1)C(=O)O

What was measured:
NCI-H1568 = experiment: CDDP-enhancing activity of CBP501, cell cycle distribution by flow-cytometry; type: cell-based, Human; conditions: 1 h co-exposure with CDDP
Experimental: (§1) Cell culture and reagents. Human NSCLC cell lines were cultured in a variety of media, each supplemented with 10% fetal bovine serum (Invitrogen, San Diego, CA) at 37° C. with 5% CO2/air. The media used was RPMI1640 (Sigma-Aldrich, St. Louis, Mo.) for NCI-H1755, NCI-H2030, NCI-H1437, NCI-H2122, NCI-H2172, NCI-H2228, NCI-H1563, NCI-H1944, NCI-H1993, NCI-H1734, NCI-H1568, NCI-H2444, NCI-H2291, NCI-H2347, NCI-H1838, NCI-H1299, HCC827, NCI-H1975, NCI-H1155, NCI-H522 and NCI-H1703; RPMI1640 supplemented with 2mM L-glutamine (Invitrogen) for NCI-H727; RPMI1640 supplemented with 4.5 g/L D-glucose (Sigma-Aldrich), 10 mM HEPES (Sigma-Aldrich) and 1 mM sodium pyruvate (Sigma-Aldrich) for NCI-H358, NCI-H520, NCI-H23, NCI-H647 and NCI-H838; Ham's F12K (Sigma-Aldrich) for A549. CDDP was purchased from Sigma-Aldrich. Sulforaphane (SFN) was purchased from Sigma-Aldrich. All NSCLC cell lines were purchased from ATCC and STR analysis had been performed by ATCC to authenticate the identity of each cell line. All cell lines were used within three months after thawing.
(§2) Cell cycle analysis. Cells were plated in 24-well plates and incubated for 24 hours. The cells were treated with or without CDDP plus or minus CBP501 at the indicated concentration for the indicated times. The cells were harvested and stained with Krishan's solution (0.1% sodium citrate, 50 μg/ml propidium iodide, 20 μg/ml RNase A, 0.5% NP-40). Stained cells were analyzed by FACSCalibur (Becton Dickinson, Franklin Lakes, N.J.) using CELLQuest software (Becton Dickinson).
(§3) Here, the change in the cell cycle distribution, as indicated by flow-cytometry, was used to estimate the sensitivity of NSCLC cell lines to CBP501-enhanced cytotoxicity to CDDP. Such changes were monitored in cells treated with CDDP in the presence or absence of CBP501. The utility of this analysis for assessing the effectiveness of anti-cancer therapy is based on the absence of functioning G1/S checkpoint regulation in the cell cycle of many types of cancer cells (14). Lack of a functional G1/S checkpoint leads to an accumulation of cancer cells in G2/M phase upon their exposure to DNA-damaging anticancer agents (14, 15).
(§4) To assess the CDDP-enhancing activity of CBP501, one can examine either of two dose-response curves in which the X-axis indicates the dose of CDDP and Y-axis indicates either the number of cells in subG1 or in G2/M. The transition and peak in either dose-response curve will shift to the left in the presence of CBP501 for CBP501-sensitive cells, indicating the enhanced ability of CDDP to change the cell cycle distribution. […] Using this criterion based on CBP501's ability to shift the CDDP-induced subG1 or G2/M dose-response curve, twelve NSCLC cell lines were classified as being either, CBP501-sensitive or CBP501-insensitive. Cell lines that shifted the curve two fold or more were classified as CBP501 sensitive cells and those that shifted the curve less than two fold were classified as CBP501 insensitive (Table 1). Classification of CBP501 sensitivity in NSCLC cell lines.

NCI-H1944 = experiment: as above; type: cell-based, Human; conditions: 1 h co-exposure with CDDP, shift of subG1 or G2/M dose-response curve
Experimental: as §1, §2, §3, §4

NCI-H2030 = experiment: as above; type: cell-based, Human; conditions: 1 h co-exposure with CDDP, shift of subG1 or G2/M dose-response curve
Experimental: as §1, §2, §3, §4

NCI-H2122 = experiment: as above; type: cell-based, Human; conditions: 1 h co-exposure with CDDP, shift of subG1 or G2/M dose-response curve
Experimental: as §1, §2, §3, §4

NCI-H2172 = experiment: as above; type: cell-based, Human; conditions: 1 h co-exposure with CDDP, shift of subG1 or G2/M dose-response curve
Experimental: as §1, §2, §3, §4

NCI-H2228 = experiment: as above; type: cell-based, Human; conditions: 1 h co-exposure with CDDP
Experimental: as §1, §2, §3, §4

NCI-H2291 = experiment: as above; type: cell-based, Human; conditions: 1 h co-exposure with CDDP
Experimental: as §1, §2, §3, §4

NCI-H2347 = experiment: as above; type: cell-based, Human; conditions: 1 h co-exposure with CDDP
Experimental: as §1, §2, §3, §4

NCI-H2444 = experiment: as above; type: cell-based, Human; conditions: 1 h co-exposure with CDDP
Experimental: as §1, §2, §3, §4

NCI-H838 = experiment: as above; type: cell-based, Human; conditions: 1 h co-exposure with CDDP; for Folds increase of CDDP effect by CBP501: shift of subG1 or G2/M dose-response curve
Experimental: as §1, §2, §3, §4

[1] = tested on: H1437 Control (Ctrl)-shRNA and Nrf2-shRNA sub-lines; experiment: Cell cycle distribution after CDDP with or without CBP501 in H1437 Ctrl-shRNA and Nrf2-shRNA sub-lines; type: cell-based, Human; conditions: one hour treatment with CDDP with or without CBP501
Experimental: Cell cycle distribution changes are detected by Flow-cytometry (n=4). The graphs at the left are from the sub-line established by introducing Control (Ctrl)-shRNA into the H1437. The graphs at the right are from the sub-line established by indtroducing Nrf2-shRNA into H1437. Upper graphs indicate the subGl population. Lower graphs indicate the G2-M population. An asterisk indicates statistical significance (TTEST; p<0.001). N.S.=not significant (p>0.01).
as §2
Lentivirus infection. […] Lentivirus infection was performed according to manufacturer's instructions.
The effect of Nrf2 knock-down in the CBP501 insensitive cell line H1437 was investigated.

[2] = tested on: multiple kinases that phosphorylate CDC25C at Ser216; conditions: cited from earlier work
14-3-3 protein = conditions: cited from earlier work
[3] = shift of subG1 or G2/M dose-response curve
[4] = NCI-H838 (Table 2, additional cell lines)

## (d-Bpa)(d-Ser)(d-Trp)(d-Ser)(d-Phe-2,3,4,5,6-F)(d-Cha)(d-Arg)(d-Arg)(d-Arg)(d-Gln)(d-Arg)(d-Arg) ([dBpa][dS][dW][dS][dPhe(F5)][dCha][dR][dR][dR][dQ][dR][dR]) [CBP501, anti-cancer drug candidate; calmodulin modulation and G2 checkpoint abrogation]
NCI-H1568
  Definition of CBP501 sensitivity: Sensitive (Cell lines that shifted the curve two fold or more were classified as CBP501 sensitive cells)
NCI-H1568; [3]
  Folds increase of CDDP effect by CBP501: 2 fold
NCI-H1944
  Folds increase of CDDP effect by CBP501: 1.5 fold
NCI-H2030
  Folds increase of CDDP effect by CBP501: 1 fold
NCI-H2122
  Folds increase of CDDP effect by CBP501: 1 fold
NCI-H2172
  Folds increase of CDDP effect by CBP501: 1.5 fold
NCI-H2228
  Definition of CBP501 sensitivity: Insensitive (those that shifted the curve less than two fold were classified as CBP501 insensitive)
NCI-H2228; [3]
  Folds increase of CDDP effect by CBP501: 1.5 fold
NCI-H2291
  Definition of CBP501 sensitivity: Sensitive (Cell lines that shifted the curve two fold or more were classified as CBP501 sensitive cells)
NCI-H2291; [3]
  Folds increase of CDDP effect by CBP501: 2 fold
NCI-H2347
  Definition of CBP501 sensitivity: Sensitive (Cell lines that shifted the curve two fold or more were classified as CBP501 sensitive cells)
NCI-H2347; [3]
  Folds increase of CDDP effect by CBP501: 4 fold
NCI-H2444
  Definition of CBP501 sensitivity: Sensitive (Cell lines that shifted the curve two fold or more were classified as CBP501 sensitive cells)
NCI-H2444; [3]
  Folds increase of CDDP effect by CBP501: 2 fold
NCI-H838; NCI-H838 (Table 1, initial twelve cell lines)
  Folds increase of CDDP effect by CBP501: 4 fold
NCI-H838; [4]
  Definition of CBP501 sensitivity: Sensitive (Cell lines that shifted the curve two fold or more were classified as CBP501 sensitive cells)
  Folds increase of CDDP effect by CBP501: 2 fold
[1]; H1437 Nrf2 knock-down
  Effect of CBP501 on CDDP-induced changes in cell cycle distribution (subG1, G2-M): increase the effects of CDDP on changes in the cell cycle distribution of subG1 and G2-M; also recorded: increases CBP501 sensitivity
[1]; H1437 control shRNA
  Effect of CBP501 on CDDP-induced changes in cell cycle distribution (subG1, G2-M): no difference in CDDP activity with or without CBP501
[2]
  Inhibition of kinases that phosphorylate CDC25C at Ser216: inhibits multiple kinases that phosphorylate CDC25C at Ser216
14-3-3 protein
  Binding to 14-3-3 protein: binds directly to 14-3-3 protein
